In patent US5358937A, “Glycosyl phospholipid derivatives of nucleosides and their use as medicines” (priority 1989, dated 1994):
Where “and” joins values, the source holds several entries; their conditions need not be identical. Equal values may be shown once. Read-outs that look alike come from different tables or passages of the source.

How the values were obtained:
[1] = system: HIV virus (isolate LAV1-BRU); test: inhibition of the cytopathogenic effect (CPE) of the HIV virus toward a continuous line of T4 lymphocytes by colorimetric assay with MTT; format: cell-based
[2] = system: HIV virus; viral reverse transcriptase; test: inhibition of viral replication by microassay of the enzymatic activity of the viral reverse transcriptase in CEM culture supernatants; format: cell-based; parameters: unit not given here
[3] = in vitro; conditions: human, cem-c113 cells
[4] = HPLC assay of AZT in the brain of mice after oral administration; format: in vivo, Swiss mouse; conditions: for Phosphodiester detected by HPLC per gram of brain, mean (offset figure): AZT equivalent micromol per mouse: CT 6715 0.94, CT 6651 0.68; for Phosphodiester detected by HPLC per gram of brain, mean (offset figure) / Phosphodiester detected by HPLC per gram of brain, individual value: CT 7624 0.90; for Phosphodiester detected by HPLC per gram of brain, individual value: AZT equivalent micromol per mouse: CT 6715, CT 7626 0.94, CT 6651, CT 7627 0.68, 60 min
Method: The assays are conducted on the Swiss mouse.
The compounds are dissolved in distilled water (or suspended in distilled water) before being administered by gavage; the assays are performed by administering each compound to 3 mice. The control consists of 3 mice receiving the equivalent of the vehicle, i.e. the same volume of distilled water as the treated mice. The brains are removed 1 hour after garage, homogenized in an acetonitrile-water (3/1) mixture, centrifuged and the supernatant is taken for the HPLC assay.
In a preliminary trial, favourable experimental conditions for the assays of the different compounds by HPLC are determined.
In the table which follows, each line corresponds to an assay series.

[5] = 31P-NMR study of the interactions between the phosphotriesters and model membranes (transmembrane transport)
[6] = system: HIV virus (isolate LAV1-BRU); test: selectivity index / protection index (CD50/ED50 ratio); format: cell-based; conditions: D7
From the text: Determination of the selectivity index
The higher the difference between the CD50 and the ED50, the more useful will be the product. This difference is quantified by the selectivity index (the CD50/ED50 ratio).

[7] = Human immunodeficiency virus 1, CEM-c113, read-out: ED50 (protective dose 50%), D7 of culture, CEM-C113 cells
[8] = Human immunodeficiency virus 1, CEM-c113, read-out: ED50 (protective dose 50%), D11 of culture, CEM-C113 cells
[9] = Human immunodeficiency virus 1, CEM-c113, read-out: ED50 (protective dose 50%), D19 of culture, CEM-C113 cells
[10] = Human immunodeficiency virus 1, CEM-c113, read-out: ED50 (protective dose 50%), D22 of culture, CEM-C113 cells
[11] = 25 mg/kg oral, 1 hour, CT 7625 0.64
[12] = 25 mg/kg oral, 1 hour, CT 7625 0.64, 25 mg/kg

## Cc1cn([C@H]2CC[C@@H](CO)O2)c(=O)[nH]c1=O [ddT, 2', 3'-dideoxy thymidine, reference compound]
[1]; [7]
  EC50: < 200 nM
[1]; [8]
  EC50: 700 nM
[1]; [9]
  EC50: 800 nM
[1]; [10]
  EC50: > 25000 nM
[2]; 1 uM, D7
  reverse transcriptase activity in culture supernatant: 3000
[2]; 1 uM, D11
  reverse transcriptase activity in culture supernatant: 1500
[2]; 1 uM, D18
  reverse transcriptase activity in culture supernatant: 750
[2]; 1 uM, D19
  reverse transcriptase activity in culture supernatant: 1200
[2]; 1 uM, D22
  reverse transcriptase activity in culture supernatant: 350
[2]; 1 uM, D26
  reverse transcriptase activity in culture supernatant: 600
[2]; 5 uM, D7
  reverse transcriptase activity in culture supernatant: 5000
[2]; 5 uM, D11
  reverse transcriptase activity in culture supernatant: 2000
[2]; 5 uM, D18
  reverse transcriptase activity in culture supernatant: 1400
[2]; 5 uM, D19
  reverse transcriptase activity in culture supernatant: 5000
[2]; 5 uM, D22
  reverse transcriptase activity in culture supernatant: 2100
[2]; 5 uM, D26
  reverse transcriptase activity in culture supernatant: 5000
[2]; 25 uM, D7
  reverse transcriptase activity in culture supernatant: 2500
[2]; 25 uM, D11
  reverse transcriptase activity in culture supernatant: 1000
[2]; 25 uM, D18
  reverse transcriptase activity in culture supernatant: 800
[2]; 25 uM, D19
  reverse transcriptase activity in culture supernatant: 7000
[2]; 25 uM, D22
  reverse transcriptase activity in culture supernatant: 4000
[2]; 25 uM, D26
  reverse transcriptase activity in culture supernatant: 5000
[3]
  CC50 at 168 h: > 25000 nM
  CC50 at 264 h: < 25000 nM
  CC50 at 456 h: > 25000 nM
  CC50 at 528 h: > 25000 nM

## CCCCCCCCCCCCCCCCOP(=O)(OCCO[C@H]1O[C@H](CO)[C@@H](O)[C@H](O)[C@@H]1O)OC[C@H]1O[C@@H](n2cc(C)c(=O)[nH]c2=O)C[C@@H]1N=[N+]=[N-] (stereo partly drawn) [CT 7625, 1-ethoxy D-mannosyl hexadecyl 5'-(3'-azido) thymidinyl phosphate]
[1]; [7]
  EC50: < 200 nM
[1]; [8]
  EC50: 1000 nM
[1]; [9]
  EC50: > 1000 nM
[1]; [10]
  EC50: > 1000 nM
[2]; 0.2 uM, D7
  reverse transcriptase activity in culture supernatant: 3900
[2]; 0.2 uM, D11
  reverse transcriptase activity in culture supernatant: 2900
[2]; 0.2 uM, D18
  reverse transcriptase activity in culture supernatant: 2400
[2]; 0.2 uM, D19
  reverse transcriptase activity in culture supernatant: 25000
[2]; 0.2 uM, D22
  reverse transcriptase activity in culture supernatant: 52000
[2]; 0.2 uM, D26
  reverse transcriptase activity in culture supernatant: 61000
[2]; 1 uM, D7
  reverse transcriptase activity in culture supernatant: 6000
[2]; 1 uM, D11
  reverse transcriptase activity in culture supernatant: 6000
[2]; 1 uM, D18
  reverse transcriptase activity in culture supernatant: 5500
[2]; 1 uM, D19
  reverse transcriptase activity in culture supernatant: 47000
[2]; 1 uM, D22
  reverse transcriptase activity in culture supernatant: 48000
[2]; 1 uM, D26
  reverse transcriptase activity in culture supernatant: 64000
[4]; 25 mg/kg oral, 1 hour, AZT equivalent micromol per mouse: CT 6651, CT 7627 0.68, CT 7625 0.64
  Phosphotriester detected by HPLC per gram of brain, individual value: 0 µg
[4]; [11]
  Phosphodiester detected by HPLC per gram of brain, mean (offset figure): 2.34 µg
[4]; [12]
  Phosphodiester detected by HPLC per gram of brain, individual value: 1.17 µg and 3.51 µg
[3]
  CC50 at 168 h: 20000 nM
  CC50 at 264 h: 28000 nM
  CC50 at 456 h: 3400 nM
  CC50 at 528 h: 24000 nM
[5]
  interaction with / location in unilamellar vesicles (in words): found in the intravesicular aqueous phase

## Nc1ccn([C@H]2CC[C@@H](CO)O2)c(=O)n1 [ddC, dideoxycytidine, reference compound]
[1]; [7]
  EC50: < 200 nM
[6]
  PROTECTION INDICES (P.I.), CD50/ED50: > 35
[3]
  CC50 at 168 h: 7000 nM
  CC50 at 264 h: 400 nM
  CC50 at 456 h: < 200 nM
  CC50 at 528 h: < 200 nM

## Cc1cn([C@H]2C[C@H](N=[N+]=[N-])[C@@H](COP(=O)(O)OCCO[C@H]3O[C@H](CO)[C@@H](O)[C@H](O)[C@@H]3O)O2)c(=O)[nH]c1=O [CT 7624, 1ethoxy D-mannosyl 5'-(3'-azido) thymidinyl phosphate]
[1]; [7]
  EC50: < 200 nM
[1]; [8]
  EC50: < 200 nM
[1]; [9]
  EC50: < 200 nM
[1]; [10]
  EC50: 800 nM
[2]; 0.2 uM, D7
  reverse transcriptase activity in culture supernatant: 4400
[2]; 0.2 uM, D11
  reverse transcriptase activity in culture supernatant: 2800
[2]; 0.2 uM, D18
  reverse transcriptase activity in culture supernatant: 2600
[2]; 0.2 uM, D19
  reverse transcriptase activity in culture supernatant: 24000
[2]; 0.2 uM, D22
  reverse transcriptase activity in culture supernatant: 27000
[2]; 0.2 uM, D26
  reverse transcriptase activity in culture supernatant: 70000
[2]; 1 uM, D7
  reverse transcriptase activity in culture supernatant: 2800
[2]; 1 uM, D11
  reverse transcriptase activity in culture supernatant: 1900
[2]; 1 uM, D18
  reverse transcriptase activity in culture supernatant: 2200
[2]; 1 uM, D19
  reverse transcriptase activity in culture supernatant: 12000
[2]; 1 uM, D22
  reverse transcriptase activity in culture supernatant: 26000
[2]; 1 uM, D26
  reverse transcriptase activity in culture supernatant: 55000
[2]; 5 uM, D7
  reverse transcriptase activity in culture supernatant: 1670
[2]; 5 uM, D11
  reverse transcriptase activity in culture supernatant: 1003
[2]; 5 uM, D18
  reverse transcriptase activity in culture supernatant: 852
[2]; 5 uM, D19
  reverse transcriptase activity in culture supernatant: 2700
[2]; 5 uM, D22
  reverse transcriptase activity in culture supernatant: 5500
[2]; 5 uM, D26
  reverse transcriptase activity in culture supernatant: 42000
[2]; 25 uM, D7
  reverse transcriptase activity in culture supernatant: 1204
[2]; 25 uM, D11
  reverse transcriptase activity in culture supernatant: 372
[2]; 25 uM, D18
  reverse transcriptase activity in culture supernatant: 304
[2]; 25 uM, D19
  reverse transcriptase activity in culture supernatant: 2100
[2]; 25 uM, D22
  reverse transcriptase activity in culture supernatant: 500
[2]; 25 uM, D26
  reverse transcriptase activity in culture supernatant: 1700
[4]; [11]
  Phosphodiester detected by HPLC per gram of brain, mean (offset figure): 2.31 µg
[4]; [12]
  Phosphodiester detected by HPLC per gram of brain, individual value: 0.92 µg and 3.70 µg
[3]
  CC50 at 168 h: 25000 nM
  CC50 at 264 h: > 25000 nM
  CC50 at 456 h: > 25000 nM
  CC50 at 528 h: > 25000 nM

## Cc1cn([C@H]2C[C@H](N=[N+]=[N-])[C@@H](COP(=O)(O)OC[C@H]3OC(O)[C@@H](O)[C@@H](O)[C@@H]3O)O2)c(=O)[nH]c1=O (stereo partly drawn) [CT 7626, 6-D-mannosyl-5'(3'-azido) thymidinyl phosphate]
[1]; [7]
  EC50: < 200 nM
[1]; [8]
  EC50: 200 nM
[1]; [9]
  EC50: 200 nM
[1]; [10]
  EC50: 600 nM
[2]; 0.2 uM, D7
  reverse transcriptase activity in culture supernatant: 3400
[2]; 0.2 uM, D11
  reverse transcriptase activity in culture supernatant: 3000
[2]; 0.2 uM, D18
  reverse transcriptase activity in culture supernatant: 1700
[2]; 0.2 uM, D19
  reverse transcriptase activity in culture supernatant: 12000
[2]; 0.2 uM, D22
  reverse transcriptase activity in culture supernatant: 27000
[2]; 0.2 uM, D26
  reverse transcriptase activity in culture supernatant: 85000
[2]; 1 uM, D7
  reverse transcriptase activity in culture supernatant: 2700
[2]; 1 uM, D11
  reverse transcriptase activity in culture supernatant: 1300
[2]; 1 uM, D18
  reverse transcriptase activity in culture supernatant: 1200
[2]; 1 uM, D19
  reverse transcriptase activity in culture supernatant: 5000
[2]; 1 uM, D22
  reverse transcriptase activity in culture supernatant: 15000
[2]; 1 uM, D26
  reverse transcriptase activity in culture supernatant: 50000
[2]; 5 uM, D7
  reverse transcriptase activity in culture supernatant: 1500
[2]; 5 uM, D11
  reverse transcriptase activity in culture supernatant: 1000
[2]; 5 uM, D18
  reverse transcriptase activity in culture supernatant: 1300
[2]; 5 uM, D19
  reverse transcriptase activity in culture supernatant: 8000
[2]; 5 uM, D22
  reverse transcriptase activity in culture supernatant: 12000
[2]; 5 uM, D26
  reverse transcriptase activity in culture supernatant: 100000
[2]; 25 uM, D7
  reverse transcriptase activity in culture supernatant: 1100
[2]; 25 uM, D11
  reverse transcriptase activity in culture supernatant: 700
[2]; 25 uM, D18
  reverse transcriptase activity in culture supernatant: 900
[2]; 25 uM, D19
  reverse transcriptase activity in culture supernatant: 2200
[2]; 25 uM, D22
  reverse transcriptase activity in culture supernatant: 900
[2]; 25 uM, D26
  reverse transcriptase activity in culture supernatant: 900
[4]; mouse, brain, po, 25 mg/kg, read-out: Phosphodiester detected by HPLC per gram of brain, individual value
  concentration at 1 h: 2050 ng/g
[3]
  CC50 at 168 h: > 25000 nM
  CC50 at 264 h: > 25000 nM
  CC50 at 456 h: 24000 nM
  CC50 at 528 h: 24000 nM
